Measurements published in paper PMC4728560 (Scientific Reports, 2016).

Tested on: Bcl-xL inhibition of cBidmt1/Bax
Assay: In vitro reconstitution liposome permeabilization, cBidmt1/Bax with Bcl-xL
Type: biochemical
Conditions: ANTS/DPX liposomes, 100 nM Bax, 20 nM cBidmt1, pre-incubation pH 9, 45 min, 37 °C, 5 h, pH 7
Excerpt: This purified assay system measures direct interactions in which full-length untagged Bcl-xL inhibits permeabilization by binding full-length caspase 8 cleaved Bid (cBid) and/or full-length untagged Bax, thereby preventing Bax oligomerization in membranes. […] In these assays liposome permeabilization by activated Bax releases the entrapped fluorophore/quencher pair 8-aminonaphthalene-1,3,6-trisulfonic acid (ANTS)/p-xylene-bispyridinium (DPX), resulting in a measurable increase of fluorescence.
(A–E) in vitro reconstitution assay on liposome permeabilization. […] The treated Bcl-xL was then added to reactions containing ANTS-DPX liposomes, 100 nM Bax and 20 nM of either cBid (A,B) or cBidmt1(C,D) at pH 7. Liposome permeabilization was quantified by fluorescence after 5h incubation at 37 °C where 100% release was defined as the fluorescence change due to lipid solubilization with 1% Triton X-100. […] Error bars, std. dev. n = 3. […] Cyto c extra-mito: in the supernatant, analysed by Western blot. […]
Figure 10 A,B) or cBid mt1 (Supplementary Figure 10 C,D) at pH 7 to quantify the activity of Bcl-xL inhibition of liposome permeablization. […]
then added to reactions containing ANTS-DPX liposomes, 100nM Bax and 20nM of either c Bid (A, C) or cBid mt1(B, D) at pH 7 and liposome permeabilization was quantified by fluorescence […]

Question: How did the “effect on Bcl-xL inhibition of cBidmt1/Bax-mediated liposome permeabilization” value turn out when “TCTP: Translationally Controlled Tumor Protein (TCTP/tpt1), recombinant full-length” was run?
Answer: enhanced Bcl-xL inhibition
